Laboratory results from patent US8785457B2 (Cellzome Limited, priority 2009, dated 2014).
Like-named read-outs stand apart in the source and are kept apart here.

Experiments:
[1] = target: T1, PI3Kalpha (PI3Ka) (Homo sapiens, UniProt P42336); assay: kinobeads assay, PI3Kalpha; type: binding; conditions: kinobeads assay, Table 6; for IC50: read-out: Inhibition values (IC50) PI3Ka
T1 construct: endogenous in cells; host or cells: cell lysate
In short: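 In this bead competition format, compound and immobilized phenylmorpholin-chromen ligand compete for kinases in cell lysate. Eluted captured kinases were measured by multiplexed immunodetection, and IC50 was calculated.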

[2] = target: T2, DNA-dependent protein kinase (DNA-PK) (Homo sapiens, UniProt P78527); assay: kinobeads assay, DNA-PK; type: binding; conditions: kinobeads assay
T2 construct: endogenous in cells; host or cells: Jurkat, clone E6-1 (ATCC TIB-152) cell lysate
In short: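 Competitive binding in Jurkat cell lysate (5 mg/mL protein) against beads carrying an immobilized phenylmorpholin-chromen ligand, in DP buffer pH 7.4 with NP40, DTT and NaF. Bead-bound kinases were eluted and quantified by antibody dot blot with infrared detection, and IC50 was taken from dose-response curves of a 1:3 dilution series.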

[3] = Table 6, read-out: Inhibition values (IC50) DNAPK
[4] = Table 4, read-out: Inhibition values (IC50) DNA-PK

T1 sequence (P42336 whole entry): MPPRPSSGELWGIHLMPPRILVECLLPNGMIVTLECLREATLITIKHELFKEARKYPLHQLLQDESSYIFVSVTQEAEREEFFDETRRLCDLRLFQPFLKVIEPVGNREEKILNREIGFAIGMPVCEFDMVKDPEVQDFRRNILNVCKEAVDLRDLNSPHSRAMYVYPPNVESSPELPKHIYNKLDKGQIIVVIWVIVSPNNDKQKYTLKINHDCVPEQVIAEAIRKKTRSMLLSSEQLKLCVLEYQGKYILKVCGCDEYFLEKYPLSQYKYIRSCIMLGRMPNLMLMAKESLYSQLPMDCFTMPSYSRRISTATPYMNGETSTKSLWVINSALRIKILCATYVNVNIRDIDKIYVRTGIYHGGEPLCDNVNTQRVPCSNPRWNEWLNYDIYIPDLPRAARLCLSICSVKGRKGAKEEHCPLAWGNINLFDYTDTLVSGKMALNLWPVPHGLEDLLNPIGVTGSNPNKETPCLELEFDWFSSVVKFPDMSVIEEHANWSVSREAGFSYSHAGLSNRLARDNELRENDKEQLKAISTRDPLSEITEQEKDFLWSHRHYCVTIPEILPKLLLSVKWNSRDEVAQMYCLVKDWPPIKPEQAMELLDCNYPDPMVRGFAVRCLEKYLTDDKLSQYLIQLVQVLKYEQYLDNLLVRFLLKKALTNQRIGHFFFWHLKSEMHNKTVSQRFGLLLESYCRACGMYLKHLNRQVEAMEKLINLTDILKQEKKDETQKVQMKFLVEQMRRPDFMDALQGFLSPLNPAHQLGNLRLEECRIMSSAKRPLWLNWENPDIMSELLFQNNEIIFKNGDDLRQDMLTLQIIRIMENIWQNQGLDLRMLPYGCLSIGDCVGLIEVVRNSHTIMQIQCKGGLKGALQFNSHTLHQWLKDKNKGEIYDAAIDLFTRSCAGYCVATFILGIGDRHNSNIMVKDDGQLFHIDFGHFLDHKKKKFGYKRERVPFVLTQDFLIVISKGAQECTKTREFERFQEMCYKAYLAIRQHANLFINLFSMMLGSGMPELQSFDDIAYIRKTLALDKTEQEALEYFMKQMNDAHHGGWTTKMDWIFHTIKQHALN
T1 sequence (P27986 whole entry partner): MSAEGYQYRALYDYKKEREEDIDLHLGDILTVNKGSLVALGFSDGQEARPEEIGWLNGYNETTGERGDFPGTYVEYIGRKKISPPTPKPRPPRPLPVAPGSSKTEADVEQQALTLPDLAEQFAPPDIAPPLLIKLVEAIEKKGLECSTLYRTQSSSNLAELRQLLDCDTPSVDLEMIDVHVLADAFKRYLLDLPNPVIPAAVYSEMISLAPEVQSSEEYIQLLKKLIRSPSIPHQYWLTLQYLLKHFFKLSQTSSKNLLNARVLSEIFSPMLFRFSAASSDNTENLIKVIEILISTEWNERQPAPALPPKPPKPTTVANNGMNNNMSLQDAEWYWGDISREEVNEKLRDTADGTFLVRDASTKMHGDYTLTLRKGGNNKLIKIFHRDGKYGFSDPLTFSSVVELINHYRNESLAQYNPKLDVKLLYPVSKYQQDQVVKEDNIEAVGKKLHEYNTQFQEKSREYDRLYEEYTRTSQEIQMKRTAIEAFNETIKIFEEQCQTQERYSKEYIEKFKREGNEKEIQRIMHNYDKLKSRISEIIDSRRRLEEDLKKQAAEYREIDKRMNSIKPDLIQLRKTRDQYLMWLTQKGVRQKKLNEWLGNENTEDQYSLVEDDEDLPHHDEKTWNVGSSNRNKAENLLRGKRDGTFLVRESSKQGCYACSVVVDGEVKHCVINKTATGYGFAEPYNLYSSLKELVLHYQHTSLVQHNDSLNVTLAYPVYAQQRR

Structure (SMILES)	Inhibition values (IC50) PI3Ka [1]	IC50 [2, 3]	IC50 [2, 4]	IC50 [1]
CCOC(=O)N1Cc2nc(-c3ccc(NC(=O)NC4CC4)cc3F)nc(N3CCOC[C@@H]3C)c2C1 [Example 131, (S)-ethyl 2-(4-(3-cyclopropylureido)-2-fluorophenyl)-4-(3-methylmorpholino)-5H-pyrrolo[3,4-d]pyrimidine-6(7H)-carboxylate]	D (D >10 μM)	> 10 µM		
CC(C)C(=O)N1CCc2c(nc(-c3ccc(NC(=O)NC4CC4)cc3)nc2N2CCOC[C@@H]2C)C1 [Example 61, (S)-1-cyclopropyl-3-(4-(7-isobutyryl-4-(3-methylmorpholino)-5,6,7,8-tetrahydropyrido[3,4-d]pyrimidin-2-yl)phenyl)urea]	D (D >10 μM)	> 10 µM	> 10 µM	
CCNC(=O)Nc1ccc(-c2nc3c(c(N4CCOC[C@@H]4C)n2)CN(C(=O)OCC)C3)c(F)c1 [Example 113, (S)-ethyl-2-(4-(3-ethylureido)-2-fluorophenyl)-4-(3-methylmorpholino)-5H-pyrrolo[3,4-d]pyrimidine-6(7H)-carboxylate]	D (D >10 μM)	> 10 µM		
CCNC(=O)Nc1ccc(-c2nc3c(c(N4CCOC[C@@H]4C)n2)CCN(C(=O)Cc2cccnc2)C3)cc1 [Example 91, (S)-1-ethyl-3-(4-(4-(3-methylmorpholino)-7-(2-(pyridin-3-yl)acetyl)-5,6,7,8-tetrahydropyrido[3,4-d]pyrimidin-2-yl)phenyl)urea]	D (D >10 μM)	> 10 µM		
CCNC(=O)Nc1ccc(-c2nc3c(c(N4CCOCC4)n2)CCN(C(=O)OCC)C3)cc1 [Example 96, ethyl 2-(4-(3-ethylureido)phenyl)-4-morpholino-5,6-dihydropyrido[3,4-d]pyrimidine-7(8H)-carboxylate]	D (D >10 μM)	> 10 µM		
C[C@H]1COCCN1c1nc(-c2ccc(NC(=O)NC3CC3)cc2)nc2c1CCN(C(=O)C(C)(C)C)C2 [Example 64, (S)-1-cyclopropyl-3-(4-(4-(3-methylmorpholino)-7-pivaloyl-5,6,7,8-tetrahydropyrido[3,4-d]pyrimidin-2-yl)phenyl)urea]	D (D >10 μM)	> 10 µM		
CCNC(=O)Nc1ccc(-c2nc3c(c(N4CCOCC4)n2)CCN(C(=O)C(C)(C)C)C3)cc1 [Example 98, 1-ethyl-3-(4-(4-morpholino-7-pivaloyl-5,6,7,8-tetrahydropyrido[3,4-d]pyrimidin-2-yl)phenyl)urea]		> 10 µM		1 to 10 µM
CCOC(=O)N1Cc2nc(-c3ccc(NC(=O)NC4CC4)c(F)c3)nc(N3CCOC[C@@H]3C)c2C1 [Example 105, (S)-ethyl 2-(4-(3-cyclopropylureido)-3-fluorophenyl)-4-(3-methylmorpholino)-5H-pyrrolo[3,4-d]pyrimidine-6(7H)-carboxylate]	D (D >10 μM)	> 10 µM		
CCNC(=O)Nc1ccc(-c2nc3c(c(N4CCOC[C@@H]4C)n2)CCN(C(=O)CO)C3)cc1 [Example 102, (S)-1-ethyl-3-(4-(7-(2-hydroxyacetyl)-4-(3-methylmorpholino)-5,6,7,8-tetrahydropyrido[3,4-d]pyrimidin-2-yl)phenyl)urea]	D (D >10 μM)	> 10 µM		
C[C@H]1COCCN1c1nc(-c2ccc(NC(N)=O)cc2)nc2c1CN(C)C2 [Example 71, (S)-1-(4-(6-methyl-4-(3-methylmorpholino)-6,7-dihydro-5H-pyrrolo[3,4-d]pyrimidin-2-yl)phenyl)urea]		> 10 µM		1 to 10 µM
C[C@H]1COCCN1c1nc(-c2ccc(NC(=O)Nc3ccn(C)n3)cc2)nc2c1CN(C)C2 [Example 84, (S)-1-(1-methyl-1H-pyrazol-3-yl)-3-(4-(6-methyl-4-(3-methylmorpholino)-6,7-dihydro-5H-pyrrolo[3,4-d]pyrimidin-2-yl)phenyl)urea]		> 10 µM		1 to 10 µM
CCNC(=O)N1CCc2c(nc(-c3ccc(NC(=O)NC4CC4)cc3)nc2N2CCOC[C@@H]2C)C1 [Example 88, (S)-2-(4-(3-cyclopropylureido)phenyl)-N-ethyl-4-(3-methylmorpholino)-5,6-dihydropyrido[3,4-d]pyrimidine-7(8H)-carboxamide]	D (D >10 μM)	> 10 µM		
CC(=O)N1CCc2c(nc(-c3ccc(NC(=O)NC4CC4)cc3)nc2N2CCOC[C@@H]2C)C1 [Example 62, (S)-1-(4-(7-acetyl-4-(3-methylmorpholino)-5,6,7,8-tetrahydropyrido[3,4-d]pyrimidin-2-yl)phenyl)-3-cyclopropylurea]	D (D >10 μM)	> 10 µM	> 10 µM	
CC(C)CN1Cc2nc(-c3ccc(NC(=O)NC4CC4)cc3)nc(N3CCOC[C@@H]3C)c2C1 [Example 65, (S)-1-cyclopropyl-3-(4-(6-isobutyl-4-(3-methylmorpholino)-6,7-dihydro-5H-pyrrolo[3,4-d]pyrimidin-2-yl)phenyl)urea]	D (D >10 μM)	> 10 µM		
CCOC(=O)N1Cc2nc(-c3ccc(NC(=O)NCCO)c(F)c3)nc(N3CCOC[C@@H]3C)c2C1 [Example 104, (S)-ethyl-2-(3-fluoro-4-(3-(2-hydroxyethyl)ureido)phenyl)-4-(3-methylmorpholino)-5H-pyrrolo[3,4-d]pyrimidine-6(7H)-carboxylate]	D (D >10 μM)	> 10 µM		
CCNC(=O)Nc1ccc(-c2nc3c(c(N4CCOC[C@@H]4C)n2)CCN(C(=O)NCC)C3)cc1 [Example 87, (S)—N-ethyl-2-(4-(3-ethylureido)phenyl)-4-(3-methylmorpholino)-5,6-dihydropyrido[3,4-d]pyrimidine-7(8H)-carboxamide]	D (D >10 μM)	> 10 µM		
CCNC(=O)Nc1ccc(-c2nc3c(c(N4CCOC[C@@H]4C)n2)CN(C(=O)OCC)C3)cc1F [Example 103, (S)-ethyl-2-(4-(3-ethylureido)-3-fluorophenyl)-4-(3-methylmorpholino)-5H-pyrrolo[3,4-d]pyrimidine-6(7H)-carboxylate]	D (D >10 μM)	> 10 µM		
C[C@H]1COCCN1c1nc(-c2ccc(NC(=O)NCCO)cc2)nc2c1CN(C)C2 [Example 73, (S)-1-(2-hydroxyethyl)-3-(4-(6-methyl-4-(3-methylmorpholino)-6,7-dihydro-5H-pyrrolo[3,4-d]pyrimidin-2-yl)phenyl)urea]		> 10 µM		1 to 10 µM
CCNC(=O)Nc1ccc(-c2nc3c(c(N4CCOC[C@@H]4C)n2)CN(C(=O)OCC)C3)cc1 [Example 90, (S)-ethyl 2-(4-(3-ethylureido)phenyl)-4-(3-methylmorpholino)-5H-pyrrolo[3,4-d]pyrimidine-6(7H)-carboxylate]	D (D >10 μM)	> 10 µM		
COC(=O)N1CCc2c(nc(-c3ccc(NC(=O)NC4CC4)cc3)nc2N2CCOC[C@@H]2C)C1 [Example 83, (S)-methyl 2-(4-(3-cyclopropylureido)phenyl)-4-(3-methylmorpholino)-5,6-dihydropyrido[3,4-d]pyrimidine-7(8H)-carboxylate]	D (D >10 μM)	> 10 µM		
CCOC(=O)N1Cc2nc(-c3ccc(NC(=O)NCCF)cc3)nc(N3CCOC[C@@H]3C)c2C1 [Example 120, (S)-ethyl 2-(4-(3-(2-fluoroethyl)ureido)phenyl)-4-(3-methylmorpholino)-5H-pyrrolo[3,4-d]pyrimidine-6(7H)-carboxylate]	D (D >10 μM)	> 10 µM		
CCOC(=O)N1CCc2c(nc(-c3ccc(NC(=O)NC4CC4)cc3)nc2N2CCOC[C@@H]2C)C1 [Example 78, (S)-ethyl 2-(4-(3-cyclopropylureido)phenyl)-4-(3-methylmorpholino)-5,6-dihydropyrido[3,4-d]pyrimidine-7(8H)-carboxylate]	D (D >10 μM)	> 10 µM		
CCNC(=O)Nc1ccc(-c2nc3c(c(N4CCOC[C@@H]4C)n2)CN(CC(C)C)C3)cc1 [Example 66, (S)-1-ethyl-3-(4-(6-isobutyl-4-(3-methylmorpholino)-6,7-dihydro-5H-pyrrolo[3,4-d]pyrimidin-2-yl)phenyl)urea]	D (D >10 μM)	> 10 µM		
CCNC(=O)Nc1ccc(-c2nc3c(c(N4CCOC[C@@H]4C)n2)CCN(C)C3)c(F)c1 [Example 110, (S)-1-ethyl-3-(3-fluoro-4-(7-methyl-4-(3-methylmorpholino)-5,6,7,8-tetrahydropyrido[3,4-d]pyrimidin-2-yl)phenyl)urea]	D (D >10 μM)	> 10 µM		
CCNC(=O)Nc1ccc(-c2nc3c(c(N4CCOCC4)n2)CN(C)C3)cc1 [Example 69, 1-Ethyl-3-(4-(6-methyl-4-morpholino-6,7-dihydro-5H-pyrrolo[3,4-d]pyrimidin-2-yl)phenyl)urea]		> 10 µM		1 to 10 µM
